Experiments:
P. noctiluca [1] = assay: Tentacle Skin Blood Agarose Assay (TSBAA): venom load as hemolytic area after natural stimulation of nematocyst discharge; assay type: cell-based; settings: for discharge of nematocysts: summary statement on the results of Examples 1 and 2
Method: (§1) Jellyfish cultures: Jellyfish were cultivated by laboratory conditions in Loro Parque aquarium (Tenerife, Spain). The P. noctiluca adult individuals were breeding in kreisels tanks with a continuous water renewal, 33-35‰ salinity, 22°C temperature and light cycle of 12h light/12h dark. Individuals were daily fed with Artemia sp. nauplii, small pieces of the jellyfish Aurelia sp., eggs of Merluccius and Parapenaeus longirostris.
Briefly, an agarose gel preparation incorporating sheep red blood cells (SRBCs) (Thermo Fisher Scientific) was used covered by a thin tissue of pig intestine to simulate the effect of the human skin barrier.
A solution of 4% low melting point agarose (INVITROGEN ™ LMP Agarose) in phosphate buffered saline (PBS) (SIGMA) was prepared and cooled to room temperature for a few minutes. The SRBCs were centrifuged and resuspended in PBS until a final concentration of 2% was obtained. Equal volumes of both preparations were mixed and poured onto a glass surface with a mold (18x7.5 cm) and allowed to cool to room temperature. Once the agarose with SRBCs was set, rectangles were cut and placed on slides and kept at 4 °C in a humidification chamber (maximum 72 hours until use).
Pig small intestine tissue was washed in a 50 mM saline solution and then cut in rectangular sections. The sections were sterilized in a disinfecting solution consisting of 87% 110 mM saline, 10% ethanol (PANREAC, ethanol 96%) and 3% hydrogen peroxide for 3 hours, after which they were left in physiological serum overnight. The next day, the sections were stretched on a glass surface and allowed to dry for a few minutes in the open air. The pretreated sections of the pig small intestine were placed on the SRBC agarose rectangles.
Cutting tentacles of the same size is a complicated process due to the contraction and expansion of the tentacles after their manipulation. In order to control the sting area, we design plastic molds obtained through a 3D printer.
Tentacle pieces of approximately 3 cm long were incubated on reductor or inhibitory solutions (Method 3) for 5 minutes. Consecutively, the agarose rectangles were stung by a sting diameter of 57,35 mm^2 for 1 minute. A weight of 0,66 g was applied to ensure the contact between the tentacle and the skin. After the sting process, the plastic molds and the intestine sections were removed and the SRBC's agarose rectangles were stored in the humidification chamber at room temperature. After a period of 22 hours, images of the hemolytic areas were obtained with a camera. Hemolytic areas were calculated using the Fiji version of ImageJ software (J. Schindelin et al., Fiji: an open-source platform for biological-image analysis. Nature methods, 2012, vol. 9, pp. 676-682). Table 2. Inhibitory efficacy on the venom load to P. noctiluca.

P. noctiluca [2] = assay: Tentacle Solution Assay (TSA): inhibition of chemically stimulated nematocyst discharge; assay type: cell-based; set-up: key to Inhibitory effect (TSA) using 5% acetic acid as chemical stimulator Discharge: 0: no discharge was observed; +: low discharge of nematocysts; ++: medium discharge of nematocysts; +++: high discharge of nematocysts; key to Inhibitory effect (TSA) using 5% acetic acid as chemical stimulator Effect: Neutral effect solution: nematocysts were not activated after the incubation in the first solution but were activated by the subsequent chemical stimulation with 5% acetic acid solution; Reductor effect solution: nematocysts were not activated after the incubation in the first solution, but some isolated nematocysts discharge was observed activated by the subsequent chemical stimulation with 5% acetic acid solution; Inhibitory effect solution: nematocysts were not activated after the incubation in the first solution or by the subsequent chemical stimulation with 5% acetic acid solution; settings: tentacle pieces incubated 5 minutes in 3 ml solution, then 15 µl of 5% acetic acid
Method: as §1
Tentacles pieces of approximately 3 cm long were transferred to slides ([…]). The samples were observed under the light microscope in order to ensure their integrity. Subsequently, tentacles were incubated on microwells with 3 ml of each solution for 5 minutes. In order to know the inhibitory effect, the neutral solutions were chemically stimulated by means of 15 µl of 5% acetic acid solution in distilled water (an activator solution per se).
The nematocysts response was classified qualitatively in four categories in accordance with Pyo et al. (2016): • 1. 0: no discharge was observed; • 2. +: low discharge of nematocysts; • 3. ++: medium discharge of nematocysts; • 4. +++: high discharge of nematocysts.
The effect was classified in one of three categories: • 1. Neutral effect solution: nematocysts were not activated after the incubation in the first solution but were activated by the subsequent chemical stimulation with 5% acetic acid solution; • 2. Reductor effect solution: nematocysts were not activated after the incubation in the first solution, but some isolated nematocysts discharge was observed activated by the subsequent chemical stimulation with 5% acetic acid solution; • 3. Inhibitory effect solution: nematocysts were not activated after the incubation in the first solution or by the subsequent chemical stimulation with 5% acetic acid solution. Table 1. Inhibitory efficacy on the nematocyst discharge in P. noctiluca.

Compound	discharge of nematocysts (P. noctiluca [1])	Inhibitory effect (TSA) using 5% acetic acid as chemical stimulator Discharge (P. noctiluca [2])	Inhibitory effect (TSA) using 5% acetic acid as chemical stimulator Effect (P. noctiluca [2])	Venom load - Hemolytic area (%) (P. noctiluca [1]; tentacles incubated 5 minutes in solution, sting 1 minute through pig intestine on sheep red blood cell agarose, read after 22 hours)	% Inhibitory (P. noctiluca [1]; {}) [%]
CC(C)(C)C1CCC(O)CC1 (stereo not drawn) [4-tert-butyl cyclohexanol]	significantly reduces	–	–	–	–
CC(=O)O [5% Acetic acid solution, acetic acid]	–	+++	Activator	–	–
CC(O)CCO (stereo not drawn) [100% Butylene glycol, butylene glycol]	–	+	Reductor	26.54 ± 19.66	56.33
CCO [100% Ethanol, ethanol]	–	++	Neutral/Reductor	–	–
CC(O)CO (stereo not drawn) [100% Propylene glycol, propylene glycol]	–	+	Reductor	–	–
O=C(CO)c1ccccc1 [HAP, hydroxy acetophenone]	significantly reduces	–	–	–	–
